Where two headings read alike, the source gives them in different places.
Legend:
CDK2/cyclinA = target: T1, CDK2/cyclinA (Homo sapiens, UniProt P24941); test: CDK2/cyclinA kinase assay, IMAP fluorescence polarization; format: biochemical
T1 construct: purchased Millipore
Protocol: (§1) Kinase assays were performed on recombinant purified enzymes using the non-radioactive IMAP fluorescence polarization assay format.
(§2) Compound stocks were prepared and diluted in DMSO and were added to kinase reactions at a 1/100 dilution for a final concentration of 1% DMSO. The components were added together to final concentrations listed in the tables below and incubated for two hours at room temperature.
(§3) The reactions were stopped by addition of stop solution.
CDK2: final stop concentration is 1× Developer buffer (100% A), IMAP beads 1/400
(§4) The samples were allowed to incubate for one more hour at room temperature and then the fluorescence polarization was measured. The plate normalized millipolarization (mP) values were plotted against the log of compound concentration for each compound and IC50 values were calculated using the spotfire IC50 calculator and confirmed by visual analysis.

CDK5 = CDK5 (Homo sapiens, UniProt Q00535); test: CDK5 kinase assay (Table F); format: biochemical
Sequence of CDK5 (Q00535 whole entry, species assumed): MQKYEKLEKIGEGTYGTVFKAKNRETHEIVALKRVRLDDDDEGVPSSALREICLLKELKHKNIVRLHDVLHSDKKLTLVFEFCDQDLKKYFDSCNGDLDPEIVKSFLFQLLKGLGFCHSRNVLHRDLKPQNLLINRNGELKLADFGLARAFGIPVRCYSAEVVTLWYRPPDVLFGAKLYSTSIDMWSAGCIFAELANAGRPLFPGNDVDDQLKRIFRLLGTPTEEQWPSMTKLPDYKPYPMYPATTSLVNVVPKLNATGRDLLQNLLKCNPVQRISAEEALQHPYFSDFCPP
Sequence of CDK5 (Q15078 whole entry partner, species assumed): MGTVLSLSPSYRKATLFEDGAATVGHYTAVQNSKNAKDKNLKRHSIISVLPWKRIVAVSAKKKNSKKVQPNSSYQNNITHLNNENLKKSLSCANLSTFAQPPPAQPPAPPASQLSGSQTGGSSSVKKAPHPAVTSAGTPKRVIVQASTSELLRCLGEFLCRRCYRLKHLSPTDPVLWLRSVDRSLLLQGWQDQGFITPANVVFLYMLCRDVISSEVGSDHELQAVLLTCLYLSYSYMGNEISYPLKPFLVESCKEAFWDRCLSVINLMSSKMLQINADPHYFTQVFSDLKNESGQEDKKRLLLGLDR

CDK4 = CDK4 (Homo sapiens, UniProt P11802); test: CDK4 kinase assay (Table F); format: biochemical
Sequence of CDK4 (P11802 whole entry, species assumed): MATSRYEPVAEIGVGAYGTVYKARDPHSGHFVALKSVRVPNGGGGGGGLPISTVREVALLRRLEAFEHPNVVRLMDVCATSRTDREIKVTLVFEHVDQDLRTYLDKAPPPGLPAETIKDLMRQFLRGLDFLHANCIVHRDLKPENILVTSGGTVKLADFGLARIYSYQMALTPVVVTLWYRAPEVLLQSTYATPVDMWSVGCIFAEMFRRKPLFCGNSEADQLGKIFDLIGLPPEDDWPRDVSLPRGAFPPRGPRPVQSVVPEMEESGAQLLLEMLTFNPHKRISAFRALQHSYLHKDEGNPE
Sequence of CDK4 (P24385 whole entry partner, species assumed): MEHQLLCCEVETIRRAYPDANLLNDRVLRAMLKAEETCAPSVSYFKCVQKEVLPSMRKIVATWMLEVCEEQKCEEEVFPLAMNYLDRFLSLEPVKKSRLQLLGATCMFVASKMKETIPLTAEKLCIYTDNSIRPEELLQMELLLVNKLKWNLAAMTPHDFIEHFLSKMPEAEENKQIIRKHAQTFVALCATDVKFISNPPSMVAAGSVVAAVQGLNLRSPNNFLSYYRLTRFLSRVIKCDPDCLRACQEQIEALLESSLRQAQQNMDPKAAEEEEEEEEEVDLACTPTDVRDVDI

CDK9/cyclinT1 = target: T2, CDK9/cyclinT1 (Homo sapiens, UniProt P50750); test: CDK9/cyclinT1 kinase assay, IMAP fluorescence polarization; format: biochemical
T2 construct: purchased Millipore
T2 sequence (P50750 whole entry): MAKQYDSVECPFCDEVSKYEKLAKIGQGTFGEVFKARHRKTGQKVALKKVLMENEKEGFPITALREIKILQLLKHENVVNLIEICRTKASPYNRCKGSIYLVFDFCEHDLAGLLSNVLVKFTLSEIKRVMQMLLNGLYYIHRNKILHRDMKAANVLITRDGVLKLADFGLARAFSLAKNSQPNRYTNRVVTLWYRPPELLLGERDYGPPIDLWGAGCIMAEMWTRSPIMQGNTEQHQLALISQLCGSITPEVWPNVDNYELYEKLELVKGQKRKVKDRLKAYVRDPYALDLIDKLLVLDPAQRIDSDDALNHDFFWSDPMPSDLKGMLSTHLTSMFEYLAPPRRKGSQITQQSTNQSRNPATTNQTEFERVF
T2 sequence (O60563 whole entry partner): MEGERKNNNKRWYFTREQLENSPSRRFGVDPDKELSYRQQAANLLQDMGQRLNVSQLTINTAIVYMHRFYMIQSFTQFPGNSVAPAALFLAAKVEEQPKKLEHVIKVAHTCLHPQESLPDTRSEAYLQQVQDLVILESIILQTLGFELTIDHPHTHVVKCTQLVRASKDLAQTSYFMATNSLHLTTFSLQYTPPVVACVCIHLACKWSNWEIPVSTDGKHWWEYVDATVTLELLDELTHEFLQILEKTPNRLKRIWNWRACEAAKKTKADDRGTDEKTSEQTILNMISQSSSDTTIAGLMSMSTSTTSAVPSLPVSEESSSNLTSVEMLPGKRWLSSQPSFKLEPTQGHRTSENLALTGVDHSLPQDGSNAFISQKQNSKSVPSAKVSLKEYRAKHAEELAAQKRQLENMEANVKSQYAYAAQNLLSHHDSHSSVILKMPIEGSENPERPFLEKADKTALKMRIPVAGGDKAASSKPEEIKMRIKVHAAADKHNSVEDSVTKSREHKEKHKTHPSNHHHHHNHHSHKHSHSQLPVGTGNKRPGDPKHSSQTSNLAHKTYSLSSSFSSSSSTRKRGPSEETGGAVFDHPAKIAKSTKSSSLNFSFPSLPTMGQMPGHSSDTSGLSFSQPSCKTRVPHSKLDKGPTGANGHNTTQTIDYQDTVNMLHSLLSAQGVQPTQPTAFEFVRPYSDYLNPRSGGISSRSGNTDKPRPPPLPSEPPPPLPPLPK
Protocol: as §1, §2, §3
CDK9/CDK1/CDK7: final stop concentration is 1× Developer buffer (85% A/15% B), IMAP beads 1/400
as §4

CDK1/cyclinB = target: T3, CDK1/cyclinB (Homo sapiens, UniProt P06493); test: CDK1/cyclinB kinase assay, IMAP fluorescence polarization; format: biochemical
T3 construct: purchased Millipore
T3 sequence (P06493 whole entry): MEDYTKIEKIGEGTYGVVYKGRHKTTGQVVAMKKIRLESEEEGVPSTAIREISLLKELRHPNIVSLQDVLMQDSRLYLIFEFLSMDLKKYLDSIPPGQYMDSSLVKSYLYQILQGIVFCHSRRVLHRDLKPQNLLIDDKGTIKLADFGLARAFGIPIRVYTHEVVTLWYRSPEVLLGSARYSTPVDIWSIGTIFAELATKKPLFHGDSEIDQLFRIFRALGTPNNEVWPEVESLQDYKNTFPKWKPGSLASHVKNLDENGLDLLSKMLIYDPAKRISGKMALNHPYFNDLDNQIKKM
T3 sequence (P14635 whole entry partner): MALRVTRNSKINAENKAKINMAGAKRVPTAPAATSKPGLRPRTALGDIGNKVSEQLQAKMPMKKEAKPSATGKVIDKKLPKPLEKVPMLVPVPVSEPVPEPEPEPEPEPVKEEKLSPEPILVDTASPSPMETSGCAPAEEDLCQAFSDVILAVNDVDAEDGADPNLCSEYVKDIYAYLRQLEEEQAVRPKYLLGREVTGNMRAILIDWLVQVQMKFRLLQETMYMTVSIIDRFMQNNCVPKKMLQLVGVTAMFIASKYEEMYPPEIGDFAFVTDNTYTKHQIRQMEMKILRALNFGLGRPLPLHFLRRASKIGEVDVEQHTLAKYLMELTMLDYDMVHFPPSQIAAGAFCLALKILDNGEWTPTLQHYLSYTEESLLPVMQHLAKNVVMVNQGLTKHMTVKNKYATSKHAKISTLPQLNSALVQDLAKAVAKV
Protocol: as §1, §2, §3
The samples were allowed to incubate for one more hour at room temperature and then the fluorescence polarization was measured.

[1] = tested on: RNA Polymerase II CTD Serine2 Phosphorylation; test: H5 (Ser2) Ab High Content Screen: RNA Polymerase II CTD Serine2 Phosphorylation Assay in Hep3B cells; format: cell-based; settings: Homo sapiens, 2 hours with compound, H5 antibody staining
Protocol: H5 (also referred as Ser2) Ab High Content Screen: RNA Polymerase II CTD Serine2 Phosphorylation Assay
1. Cells are plated into 384 well plates: 30 μl of Hep3B cells (4,000 cells/30 μl) in DMEM with 3% FBS are plated into wells of a tissue culture treated clear bottomed 384 well plate. Cells are allowed to adhere during an overnight incubation.
2. Cells are treated with compounds for two hours: 10 μl of DMEM with 3% FBS is added to each well with a final concentration of DMSO equal to 1%. Cells are incubated with compounds for 2 hours.
3. Cells are fixed and permeabilized. Cells are washed with 30 mM HEPES pH=7.3 then fixed in 4% paraformaldehyde in 30 mM HEPES pH=7.3 for one hour at room temperature. The fix is removed by washing the cells with Tris buffered saline (TBS) and the cells are permeabilized by incubation in TBS with 0.5% triton X-100 for 30 minutes at room temperature. Triton is removed by washing the cells with TBS.
4. […] Incubate primary H5 Ab (1/250 ) overnight at 4 degrees in TBS with 1% BSA and 0.1% Tween-20. The next day wash cells with TBS. […] Wash cells with PBS.
5. Measure staining using the In-cell Analyzer system from GE Healthcare.

| IC50 (CDK2/cyclinA) [µM] | IC50 (CDK5) [µM] | IC50 (CDK4) [µM] | IC50 (CDK9/cyclinT1) [µM] | IC50 (CDK1/cyclinB; read-out: CDK1 IC50) [µM] | IC50 [1] [µM] | Compound | IC50 (CDK1/cyclinB) [µM] |
| --- | --- | --- | --- | --- | --- | --- | --- |
| < 5 | < 5 | 5 to 15 | < 5 | < 5 | – | CN(C)CCCNc1ncccc1-c1ccnc(Nc2cccc(Cl)c2)n1 [Compound 63, N-{3-[2-(3-Chloro-phenylamino)-pyrimidin-4-yl]-pyridin-2-yl}-N′,N′-dimethyl-propane-1,3-diamine] | – |
| < 5 | < 5 | 5 to 15 | < 5 | < 5 | – | CC(C)NCCCNc1ncccc1-c1ccnc(Nc2cccc(Cl)c2)n1 [Compound 64, N-{3-[2-(3-Chloro-phenylamino)-pyrimidin-4-yl]-pyridin-2-yl}-N′-isopropyl-propane-1,3-diamine] | – |
| < 5 | < 5 | < 5 | < 5 | 5 to 15 | – | COc1cnccc1-c1nc(Nc2cccc(S(N)(=O)=O)c2)ncc1C [Compound 47, 3-[4-(3-Methoxy-pyridin-4-yl)-5-methyl-pyrimidin-2-ylamino]-benzenesulfonamide] | – |
| 15 to 50 | 15 to 50 | 15 to 50 | < 5 | 5 to 15 | – | CC(=O)NCCCOc1ncccc1-c1ccnc(Nc2cccc(Cl)c2)n1 [Compound 121, N-(3-{3-[2-(3-Chloro-phenylamino)-pyrimidin-4-yl]-pyridin-2-yloxy}-propyl)-acetamide] | – |
| > 50 | – | – | < 5 | > 50 | > 50 | Cc1c(-c2ccnc(Nc3cccc(Cl)c3)n2)ccnc1Cl [Compound 2, [4-(2-Chloro-3-methyl-pyridin-4-yl)-pyrimidin-2-yl]-(3-chloro-phenyl)-amine] | – |
| 15 to 50 | < 5 | 15 to 50 | < 5 | < 5 | – | NCCCOc1ncccc1-c1ccnc(Nc2cccc(Cl)c2)n1 [Compound 120, {4-[2-(3-Amino-propoxy)-pyridin-3-yl]-pyrimidin-2-yl}-(3-chloro-phenyl)-amine] | – |
| < 5 | < 5 | 15 to 50 | < 5 | < 5 | – | CC(=O)NCCCNc1ncccc1-c1ccnc(Nc2cccc(C#N)c2)n1 [Compound 69, N-(3-{3-[2-(3-Cyano-phenylamino)-pyrimidin-4-yl]-pyridin-2-ylamino}-propyl)-acetamide] | – |
| < 5 | – | – | < 5 | 5 to 15 | 5 to 15 | Cc1c(-c2ccnc(Nc3cccc(Cl)c3)n2)ccnc1NCCCN1CCOCC1 [Compound 22, (3-Chloro-phenyl)-{4-[3-methyl-2-(3-morpholin-4-yl-propylamino)-pyridin-4-yl]-pyrimidin-2-yl}-amine] | – |
| < 5 | < 5 | 15 to 50 | < 5 | < 5 | – | CC(=O)NCCCNc1ncccc1-c1ccnc(Nc2cccc(S(N)(=O)=O)c2)n1 [Compound 68, N-(3-{3-[2-(3-Sulfamoyl-phenylamino)-pyrimidin-4-yl]-pyridin-2-ylamino}-propyl)-acetamide] | – |
| – | < 5 | 5 to 15 | < 5 | < 5 | < 5 | Clc1cccc(Nc2nccc(-c3ccnc4ccccc34)n2)c1 [Compound 48, (3-Chloro-phenyl)-(4-quinolin-4-yl-pyrimidin-2-yl)-amine] | – |
| < 5 | < 5 | 15 to 50 | < 5 | < 5 | – | Clc1cccc(Nc2nccc(-c3cccnc3NCCc3c[nH]cn3)n2)c1 [Compound 79] | – |
| < 5 | 5 to 15 | – | < 5 | 5 to 15 | 15 to 50 | Cc1c(-c2ccnc(Nc3cccc(Cl)c3)n2)ccnc1NCCCN1CCCC1=O [Compound 24, 1-(3-{4-[2-(3-Chloro-phenylamino)-pyrimidin-4-yl]-3-methyl-pyridin-2-ylamino}-propyl)-pyrrolidin-2-one] | – |
| > 50 | 5 to 15 | 15 to 50 | > 50 | > 50 | – | CCN(CC)S(=O)(=O)c1cccc(Nc2nccc(-c3cccnc3OC)n2)c1 [Compound 105, N,N-Diethyl-3-[4-(2-methoxy-pyridin-3-yl)-pyrimidin-2-ylamino]-benzenesulfonamide] | – |
| < 5 | – | – | < 5 | < 5 | 15 to 50 | CCCCNS(=O)(=O)c1cccc(Nc2nccc(-c3cccnc3OC)n2)c1 [Compound 102, N-Butyl-3-[4-(2-methoxy-pyridin-3-yl)-pyrimidin-2-ylamino]-benzenesulfonamide] | – |
| < 5 | – | – | < 5 | < 5 | < 5 | CC(=O)NCCCNc1cc(-c2ccnc(Nc3cccc(Cl)c3)n2)cc(C)n1 [Compound 42, N-(3-{4-[2-(3-Chloro-phenylamino)-pyrimidin-4-yl]-6-methyl-pyridin-2-ylamino}-propyl)-acetamide] | – |
| 5 to 15 | 5 to 15 | 15 to 50 | < 5 | > 50 | – | CC(=O)NCCCNc1ncccc1-c1ccnc(Nc2cccc(S(C)(=O)=O)c2)n1 [Compound 67, N-(3-{3-[2-(3-Methanesulfonyl-phenylamino)-pyrimidin-4-yl]-pyridin-2-ylamino}-propyl)-acetamide] | – |
| < 5 | < 5 | < 5 | < 5 | 5 to 15 | – | COc1ncccc1-c1ccnc(Nc2ccc(N3CCN(C)CC3)cc2)n1 [Compound 117, [4-(2-Methoxy-pyridin-3-yl)-pyrimidin-2-yl]-[4-(4-methyl-piperazin-1-yl)-phenyl]-amine] | – |
| < 5 | < 5 | 15 to 50 | < 5 | < 5 | – | Cc1cnccc1-c1ccnc(Nc2cccc(Cl)c2)n1 [Compound 44, (3-Chloro-phenyl)-[4-(3-methyl-pyridin-4-yl)-pyrimidin-2-yl]-amine] | – |
| < 5 | – | – | < 5 | < 5 | < 5 | COc1ncccc1-c1ccnc(Nc2cccc(-c3cnco3)c2)n1 [Compound 110, [4-(2-Methoxy-pyridin-3-yl)-pyrimidin-2-yl]-(3-oxazol-5-yl-phenyl)-amine] | – |
| < 5 | < 5 | 15 to 50 | < 5 | < 5 | – | NS(=O)(=O)c1cccc(Nc2nccc(-c3cccnc3NCCCn3ccnc3)n2)c1 [Compound 83, 3-{4-[2-(3-Imidazol-1-yl-propylamino)-pyridin-3-yl]-pyrimidin-2-ylamino}-benzenesulfonamide] | – |
| < 5 | – | – | 15 to 50 | 15 to 50 | – | COc1ncccc1-c1ccnc(Nc2cccc(C(=O)O)c2)n1 [Compound 94, 3-[4-(2-Methoxy-pyridin-3-yl)-pyrimidin-2-ylamino]-benzoic acid] | – |
| < 5 | – | – | < 5 | < 5 | 5 to 15 | Cc1c(-c2ccnc(Nc3cccc(Cl)c3)n2)ccnc1NCc1ccccc1 [Compound 21, [4-(2-Benzylamino-3-methyl-pyridin-4-yl)-pyrimidin-2-yl]-(3-chloro-phenyl)-amine] | – |

| Compound | IC50 (CDK2/cyclinA) [µM] | IC50 (CDK5) [µM] | IC50 (CDK4) [µM] | IC50 (CDK9/cyclinT1) [µM] | IC50 (CDK1/cyclinB; read-out: CDK1 IC50) [µM] | IC50 [1] [µM] | IC50 (CDK1/cyclinB) [µM] |
| --- | --- | --- | --- | --- | --- | --- | --- |
| COc1ncccc1-c1ccnc(Nc2ccc3cn[nH]c3c2)n1 [Compound 112, (1H-Indazol-6-yl)-[4-(2-methoxy-pyridin-3-yl)-pyrimidin-2-yl]-amine] | < 5 | – | – | < 5 | – | < 5 | < 5 |
